From the kinase profiling compilation of Christmann-Franck et al. (2016)

How the values were obtained:
Assay in all cases: radiometric filter-binding kinase assay, Kinase HotSpot
Settings in all cases: compound 0.5 µM; ATP 10 µM
[1] = target: PRKCE (human) (UniProt Q02156)
[2] = target: SGK3 (human) (UniProt Q96BR1)
[3] = target: CDK9 CCNK (human) (UniProt O75909+P50750)
[4] = target: GRK7 (human) (UniProt Q8WTQ7)
[5] = target: CDK5 CDK5R1 p25 (human) (UniProt Q00535+Q15078)
[6] = target: MYLK (human) (UniProt Q15746)
[7] = target: CAMKK1 (human) (UniProt Q8N5S9)
[8] = target: ADRBK1 (human) (UniProt P25098)
[9] = target: BMX (human) (UniProt P51813)
[10] = target: CAMK2A (human) (UniProt Q9UQM7)
[11] = target: EPHA1 (human) (UniProt P21709)
[12] = target: TAOK3 (human) (UniProt Q9H2K8)
[13] = target: MLTK (human) (UniProt Q9NYL2)
[14] = target: CSK (human) (UniProt P41240)
[15] = target: STK10 (human) (UniProt O94804)
[16] = target: PRKCI (human) (UniProt P41743)
[17] = target: PLK3 (human) (UniProt Q9H4B4)
[18] = target: ITK (human) (UniProt Q08881)
[19] = target: HIPK2 (human) (UniProt Q9H2X6)
[20] = target: FGR (human) (UniProt P09769)
[21] = target: ZAP70 (human) (UniProt P43403)
[22] = target: LRRK2 (human) (UniProt Q5S007)
[23] = target: IRAK4 (human) (UniProt Q9NWZ3)
[24] = target: PAK6 (human) (UniProt Q9NQU5)
[25] = target: CDC42BPA (human) (UniProt Q5VT25)
[26] = target: MATK (human) (UniProt P42679)
[27] = target: ADRBK2 (human) (UniProt P35626)
[28] = target: YES1 (human) (UniProt P07947)
[29] = target: NEK4 (human) (UniProt P51957)
[30] = target: SGK2 (human) (UniProt Q9HBY8)
[31] = target: MARK4 (human) (UniProt Q96L34)
[32] = target: MAP3K2 (human) (UniProt Q9Y2U5)
[33] = target: CDC42BPB (human) (UniProt Q9Y5S2)
[34] = target: PRKCD (human) (UniProt Q05655)
[35] = target: MARK1 (human) (UniProt Q9P0L2)
[36] = target: FLT1 (human) (UniProt P17948)
[37] = target: PRKCB1 (human) (UniProt P05771)
[38] = target: PAK4 (human) (UniProt O96013)
[39] = target: DSTYK (human) (UniProt Q6XUX3)
[40] = target: PRKCG (human) (UniProt P05129)
[41] = target: ABL2 (human) (UniProt P42684)

Chain of CDC42BPA (human) (Q5VT25 whole entry, looked up): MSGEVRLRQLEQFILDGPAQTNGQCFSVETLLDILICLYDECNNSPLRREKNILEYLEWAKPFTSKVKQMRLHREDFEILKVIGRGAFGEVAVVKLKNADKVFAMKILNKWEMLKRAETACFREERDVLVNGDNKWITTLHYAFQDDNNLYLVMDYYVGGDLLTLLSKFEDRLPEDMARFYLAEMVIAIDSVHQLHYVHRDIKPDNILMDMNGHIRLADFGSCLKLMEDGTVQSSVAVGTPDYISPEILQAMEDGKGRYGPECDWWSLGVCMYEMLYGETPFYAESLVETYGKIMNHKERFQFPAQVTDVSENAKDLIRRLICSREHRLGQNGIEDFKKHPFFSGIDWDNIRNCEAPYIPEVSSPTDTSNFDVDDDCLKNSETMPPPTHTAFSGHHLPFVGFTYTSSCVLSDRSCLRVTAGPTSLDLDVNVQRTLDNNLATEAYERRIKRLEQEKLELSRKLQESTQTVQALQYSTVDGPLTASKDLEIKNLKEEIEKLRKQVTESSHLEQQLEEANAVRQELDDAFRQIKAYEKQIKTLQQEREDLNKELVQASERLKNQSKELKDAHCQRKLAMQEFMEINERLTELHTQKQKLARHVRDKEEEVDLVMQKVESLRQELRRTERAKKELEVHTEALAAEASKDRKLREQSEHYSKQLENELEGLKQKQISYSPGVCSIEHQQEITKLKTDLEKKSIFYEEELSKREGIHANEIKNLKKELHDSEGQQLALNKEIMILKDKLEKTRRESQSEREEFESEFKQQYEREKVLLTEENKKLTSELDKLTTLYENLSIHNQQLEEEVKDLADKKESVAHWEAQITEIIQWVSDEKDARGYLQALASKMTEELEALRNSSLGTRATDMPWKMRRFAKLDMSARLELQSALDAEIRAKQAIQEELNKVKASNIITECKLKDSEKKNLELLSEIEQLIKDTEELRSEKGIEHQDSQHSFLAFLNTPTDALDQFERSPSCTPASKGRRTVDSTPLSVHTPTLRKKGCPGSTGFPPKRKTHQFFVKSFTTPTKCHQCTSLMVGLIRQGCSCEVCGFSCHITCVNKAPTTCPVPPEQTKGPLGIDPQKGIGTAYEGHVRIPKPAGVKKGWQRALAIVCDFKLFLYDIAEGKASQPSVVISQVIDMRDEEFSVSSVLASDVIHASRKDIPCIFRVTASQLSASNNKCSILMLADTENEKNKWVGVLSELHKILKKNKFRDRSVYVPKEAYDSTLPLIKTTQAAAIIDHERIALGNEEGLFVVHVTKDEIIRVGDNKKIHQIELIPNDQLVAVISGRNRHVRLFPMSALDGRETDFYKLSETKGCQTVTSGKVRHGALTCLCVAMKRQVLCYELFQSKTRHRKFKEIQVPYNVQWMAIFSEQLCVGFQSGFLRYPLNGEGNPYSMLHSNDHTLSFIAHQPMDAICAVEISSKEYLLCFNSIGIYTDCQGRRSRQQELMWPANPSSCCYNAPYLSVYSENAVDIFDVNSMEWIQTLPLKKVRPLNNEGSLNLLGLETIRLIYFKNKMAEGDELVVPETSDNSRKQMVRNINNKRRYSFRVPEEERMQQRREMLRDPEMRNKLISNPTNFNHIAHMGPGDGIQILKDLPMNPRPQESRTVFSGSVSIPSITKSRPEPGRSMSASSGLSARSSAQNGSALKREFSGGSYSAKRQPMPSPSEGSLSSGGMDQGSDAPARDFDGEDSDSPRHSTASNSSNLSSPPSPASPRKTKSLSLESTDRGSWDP
Chain of SGK3 (human) (Q96BR1 whole entry, looked up): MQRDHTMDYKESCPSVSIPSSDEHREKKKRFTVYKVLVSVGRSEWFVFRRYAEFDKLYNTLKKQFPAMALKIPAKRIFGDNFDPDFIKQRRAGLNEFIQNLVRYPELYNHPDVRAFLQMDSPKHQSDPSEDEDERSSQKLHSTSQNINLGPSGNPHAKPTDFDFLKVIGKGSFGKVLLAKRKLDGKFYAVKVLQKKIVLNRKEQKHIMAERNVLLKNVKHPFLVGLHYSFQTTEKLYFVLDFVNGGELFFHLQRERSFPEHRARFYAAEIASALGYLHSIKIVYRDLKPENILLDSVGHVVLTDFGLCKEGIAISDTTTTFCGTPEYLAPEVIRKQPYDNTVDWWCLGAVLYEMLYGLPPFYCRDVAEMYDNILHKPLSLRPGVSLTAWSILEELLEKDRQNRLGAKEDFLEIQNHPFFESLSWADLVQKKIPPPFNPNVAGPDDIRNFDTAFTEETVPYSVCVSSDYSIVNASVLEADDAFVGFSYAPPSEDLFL
Chain of EPHA1 (human) (P21709 whole entry, looked up): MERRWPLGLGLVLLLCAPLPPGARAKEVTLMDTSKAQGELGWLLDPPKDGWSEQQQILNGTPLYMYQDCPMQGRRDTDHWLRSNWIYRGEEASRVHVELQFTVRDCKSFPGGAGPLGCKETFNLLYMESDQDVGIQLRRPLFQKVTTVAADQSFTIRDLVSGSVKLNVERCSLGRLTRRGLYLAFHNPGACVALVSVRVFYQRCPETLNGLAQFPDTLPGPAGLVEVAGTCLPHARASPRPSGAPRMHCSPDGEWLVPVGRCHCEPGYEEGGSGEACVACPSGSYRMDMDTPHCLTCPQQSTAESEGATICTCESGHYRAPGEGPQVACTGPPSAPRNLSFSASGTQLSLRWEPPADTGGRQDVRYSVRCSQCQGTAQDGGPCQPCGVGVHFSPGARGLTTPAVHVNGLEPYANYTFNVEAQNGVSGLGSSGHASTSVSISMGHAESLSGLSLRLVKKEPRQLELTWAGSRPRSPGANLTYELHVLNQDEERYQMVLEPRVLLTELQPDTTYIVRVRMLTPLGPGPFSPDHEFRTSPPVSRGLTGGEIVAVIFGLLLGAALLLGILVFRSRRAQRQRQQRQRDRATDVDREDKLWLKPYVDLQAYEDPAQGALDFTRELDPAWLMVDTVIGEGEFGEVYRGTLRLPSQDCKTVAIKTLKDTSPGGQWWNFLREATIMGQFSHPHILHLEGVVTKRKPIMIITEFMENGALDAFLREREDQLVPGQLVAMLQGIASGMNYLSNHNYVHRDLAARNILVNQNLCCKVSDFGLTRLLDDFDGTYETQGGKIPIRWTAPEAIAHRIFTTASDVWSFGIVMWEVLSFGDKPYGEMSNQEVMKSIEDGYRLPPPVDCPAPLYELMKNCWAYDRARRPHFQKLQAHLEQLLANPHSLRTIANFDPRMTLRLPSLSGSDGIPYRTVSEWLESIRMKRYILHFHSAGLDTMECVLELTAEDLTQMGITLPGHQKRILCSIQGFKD
Chain of CDK5 CDK5R1 p25 (human) (Q00535 whole entry, looked up): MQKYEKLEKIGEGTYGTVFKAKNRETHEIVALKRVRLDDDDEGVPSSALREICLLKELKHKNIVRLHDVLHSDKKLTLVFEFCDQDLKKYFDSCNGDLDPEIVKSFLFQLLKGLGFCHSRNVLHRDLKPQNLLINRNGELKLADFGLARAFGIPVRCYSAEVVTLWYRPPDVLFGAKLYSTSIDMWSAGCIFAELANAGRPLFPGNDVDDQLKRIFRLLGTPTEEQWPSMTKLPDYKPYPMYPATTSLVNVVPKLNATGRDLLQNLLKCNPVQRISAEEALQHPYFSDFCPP
Chain of CDK5 CDK5R1 p25 (human) (Q15078 whole entry, looked up): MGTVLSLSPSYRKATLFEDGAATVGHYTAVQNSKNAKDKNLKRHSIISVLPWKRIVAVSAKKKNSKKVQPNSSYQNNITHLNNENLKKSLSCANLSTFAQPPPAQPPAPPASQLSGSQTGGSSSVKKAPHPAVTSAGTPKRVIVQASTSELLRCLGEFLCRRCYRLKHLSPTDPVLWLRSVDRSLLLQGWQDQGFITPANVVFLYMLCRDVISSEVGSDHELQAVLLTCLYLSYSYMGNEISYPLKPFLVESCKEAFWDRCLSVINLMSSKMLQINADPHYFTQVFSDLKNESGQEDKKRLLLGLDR
Chain of PAK6 (human) (Q9NQU5 whole entry, looked up): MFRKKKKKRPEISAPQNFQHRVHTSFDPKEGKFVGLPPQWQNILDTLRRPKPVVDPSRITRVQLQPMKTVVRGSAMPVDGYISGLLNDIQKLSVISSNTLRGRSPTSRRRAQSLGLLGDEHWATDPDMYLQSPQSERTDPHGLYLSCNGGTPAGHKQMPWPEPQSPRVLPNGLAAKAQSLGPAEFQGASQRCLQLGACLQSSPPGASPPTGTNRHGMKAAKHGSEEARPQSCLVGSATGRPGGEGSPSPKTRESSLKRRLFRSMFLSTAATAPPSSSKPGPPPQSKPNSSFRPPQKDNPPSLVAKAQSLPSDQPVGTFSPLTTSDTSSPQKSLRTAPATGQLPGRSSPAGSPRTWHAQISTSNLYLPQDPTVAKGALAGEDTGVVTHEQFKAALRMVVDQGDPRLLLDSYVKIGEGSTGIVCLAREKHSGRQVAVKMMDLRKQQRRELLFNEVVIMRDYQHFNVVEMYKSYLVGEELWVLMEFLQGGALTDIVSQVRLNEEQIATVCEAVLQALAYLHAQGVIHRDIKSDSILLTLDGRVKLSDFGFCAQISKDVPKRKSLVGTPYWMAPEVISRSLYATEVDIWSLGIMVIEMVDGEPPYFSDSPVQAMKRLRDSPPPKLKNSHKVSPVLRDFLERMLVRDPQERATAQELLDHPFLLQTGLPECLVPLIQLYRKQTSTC
Chain of YES1 (human) (P07947 whole entry, looked up): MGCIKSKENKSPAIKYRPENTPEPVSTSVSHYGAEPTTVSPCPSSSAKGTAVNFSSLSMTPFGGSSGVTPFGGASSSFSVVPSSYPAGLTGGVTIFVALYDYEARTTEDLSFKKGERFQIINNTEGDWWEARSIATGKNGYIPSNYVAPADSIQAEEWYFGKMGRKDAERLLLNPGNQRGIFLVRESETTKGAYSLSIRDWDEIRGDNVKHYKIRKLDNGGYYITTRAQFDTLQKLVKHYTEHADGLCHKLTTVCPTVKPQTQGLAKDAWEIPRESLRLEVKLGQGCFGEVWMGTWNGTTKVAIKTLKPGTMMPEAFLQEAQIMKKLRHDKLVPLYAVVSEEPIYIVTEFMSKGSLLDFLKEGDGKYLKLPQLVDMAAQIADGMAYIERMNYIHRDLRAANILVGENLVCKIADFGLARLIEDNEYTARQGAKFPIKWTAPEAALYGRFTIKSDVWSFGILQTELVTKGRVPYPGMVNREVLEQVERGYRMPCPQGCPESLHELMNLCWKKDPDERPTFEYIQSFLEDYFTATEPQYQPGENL

## CO[C@@H]1[C@H](N(C)C(=O)c2ccccc2)C[C@H]2O[C@]1(C)n1c3ccccc3c3c4c(c5c6ccccc6n2c5c31)C(=O)NC4
[1]
  residual activity: 10.7%
[2]
  residual activity: 93.5%
[3]
  residual activity: 71%
[4]
  residual activity: 15.5%
[5]
  residual activity: 73.3%
[6]
  residual activity: 27.3%
[7]
  residual activity: 20.4%
[8]
  residual activity: 102%
[9]
  residual activity: 32%
[10]
  residual activity: 36.8%
[11]
  residual activity: 93.5%
[12]
  residual activity: 38.1%
[13]
  residual activity: 94.2%
[14]
  residual activity: 55.1%
[15]
  residual activity: 19.3%
[16]
  residual activity: 96.4%
[17]
  residual activity: 95.3%
[18]
  residual activity: 70.6%
[19]
  residual activity: 106%
[20]
  residual activity: 17.4%
[21]
  residual activity: 65.4%
[22]
  residual activity: 8.46%
[23]
  residual activity: 71.5%
[24]
  residual activity: 96.4%
[25]
  residual activity: 96%
[26]
  residual activity: 113%
[27]
  residual activity: 97.5%
[28]
  residual activity: 20.6%
[29]
  residual activity: 97.6%
[30]
  residual activity: 99%
[31]
  residual activity: 3.16%
[32]
  residual activity: 30.2%
[33]
  residual activity: 95.9%
[34]
  residual activity: 10.9%
[35]
  residual activity: 4.09%
[36]
  residual activity: 37%

## Cc1cncc2cccc(S(=O)(=O)N3CCCN(C(=O)CN)C[C@H]3C)c12
[1]
  residual activity: 52.4%
[2]
  residual activity: 96%
[37]
  residual activity: 99.4%
[3]
  residual activity: 103%
[4]
  residual activity: 88.8%
[5]
  residual activity: 94.1%
[6]
  residual activity: 103%
[38]
  residual activity: 99.5%
[7]
  residual activity: 115%
[8]
  residual activity: 101%
[9]
  residual activity: 94%
[39]
  residual activity: 105%
[10]
  residual activity: 93.2%
[40]
  residual activity: 101%
[11]
  residual activity: 89.2%
[12]
  residual activity: 96.2%
[13]
  residual activity: 108%
[15]
  residual activity: 42%
[16]
  residual activity: 87.4%
[17]
  residual activity: 98.4%
[18]
  residual activity: 97.2%
[19]
  residual activity: 90.2%
[20]
  residual activity: 94.1%
[21]
  residual activity: 102%
[22]
  residual activity: 54.6%
[41]
  residual activity: 98.9%
[23]
  residual activity: 109%
[24]
  residual activity: 108%
[25]
  residual activity: 95.1%
[26]
  residual activity: 94.4%
[27]
  residual activity: 95%
[28]
  residual activity: 92%
[29]
  residual activity: 95.3%
[30]
  residual activity: 102%
[31]
  residual activity: 95.7%
[32]
  residual activity: 92.1%
[33]
  residual activity: 105%
[34]
  residual activity: 22.4%
[35]
  residual activity: 89.7%
[36]
  residual activity: 96.9%

## C[C@@H]1CCN(C(=O)CC#N)C[C@@H]1N(C)c1ncnc2[nH]ccc12
[1]
  residual activity: 98.5%
[2]
  residual activity: 98.1%
[37]
  residual activity: 101%
[3]
  residual activity: 102%
[4]
  residual activity: 102%
[5]
  residual activity: 100%
[6]
  residual activity: 89.9%
[38]
  residual activity: 99.2%
[7]
  residual activity: 101%
[8]
  residual activity: 95.3%
[9]
  residual activity: 111%
[39]
  residual activity: 98.4%
[10]
  residual activity: 99.6%
[40]
  residual activity: 90.6%
[11]
  residual activity: 98%
[12]
  residual activity: 94.9%
[13]
  residual activity: 98.2%
[14]
  residual activity: 101%
[15]
  residual activity: 92.9%
[16]
  residual activity: 103%
[17]
  residual activity: 99.1%
[18]
  residual activity: 99.1%
[19]
  residual activity: 96.9%
[20]
  residual activity: 91.1%
[21]
  residual activity: 105%
[22]
  residual activity: 51.3%
[41]
  residual activity: 90.5%
[23]
  residual activity: 88.5%
[24]
  residual activity: 102%
[25]
  residual activity: 110%
[26]
  residual activity: 66.9%
[27]
  residual activity: 99.2%
[28]
  residual activity: 87.1%
[29]
  residual activity: 96%
[30]
  residual activity: 104%
[31]
  residual activity: 81.7%
[32]
  residual activity: 123%
[33]
  residual activity: 95.4%
[34]
  residual activity: 75.3%
[35]
  residual activity: 119%
[36]
  residual activity: 101%
